Measured values from ChEMBL document CHEMBL1131078, “Small molecular probes for G-protein-coupled C5a receptors: conformationally constrained antagonists derived from the C terminus of the human plasma protein C5a” (J Med Chem, 1998).
Calls of active or inactive are those of the source. The rule behind the calls is not given here. Where a SMILES comes first, the peptide text is derived from it.

Assays:
Homo sapiens = species: Homo sapiens; assay: Agonist activity at dose range 0.1 nM to 1 mM in human PMNs; No agonistic activity; assay type: functional
[1] = molecular target: T1, C5a anaphylatoxin chemotactic receptor 1 (Homo sapiens, UniProt P21730); assay: 50% reduction in myeloperoxidase secretion from human PMNs mediated by 100 nM C5a
T1 sequence (P21730 whole entry): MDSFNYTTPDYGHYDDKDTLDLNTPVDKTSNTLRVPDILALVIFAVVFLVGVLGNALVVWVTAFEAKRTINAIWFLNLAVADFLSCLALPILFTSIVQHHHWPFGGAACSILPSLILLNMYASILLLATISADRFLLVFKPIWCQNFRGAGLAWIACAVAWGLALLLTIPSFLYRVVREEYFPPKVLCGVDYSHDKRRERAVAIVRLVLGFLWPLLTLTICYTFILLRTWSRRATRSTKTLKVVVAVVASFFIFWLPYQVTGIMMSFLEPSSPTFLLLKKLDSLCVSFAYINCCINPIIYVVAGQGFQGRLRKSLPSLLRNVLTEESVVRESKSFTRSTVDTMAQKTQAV

[2] = molecular target: T1, C5a anaphylatoxin chemotactic receptor 1; assay: 50% reduction in binding of [125I]C5a to human polymorphonuclear cells (PMNs); assay type: cell-based, PMN

| SMILES | Agonistic activity (Homo sapiens) | other results |
| --- | --- | --- |
| CC(=O)N[C@@H](Cc1ccccc1)C(=O)N[C@H]1CCCCNC(=O)[C@H](CCCN=C(N)N)NC(=O)[C@H](Cc2c[nH]c3ccccc23)NC(=O)[C@@H](CC2CCCCC2)NC(=O)[C@@H]2CCCN2C1=O | inactive | – |
| CN[C@@H](Cc1ccccc1)C(=O)N[C@@H](CCCCN)C(=O)N1CCC[C@H]1C(=O)N[C@@H](CC(C)C)C(=O)N[C@@H](Cc1c[nH]c2ccccc12)C(=O)N[C@@H](CCCN=C(N)N)C(=O)O (HELM PEPTIDE1{[meF].K.P.L.W.R}$$$$V2.0) | – | IC50 [1]: > 1000 µM |
| CC[C@H](C)[C@H](N)C(=O)N[C@@H](CO)C(=O)N[C@@H](Cc1cnc[nH]1)C(=O)N[C@@H](CCCCN)C(=O)N[C@@H](CC(=O)O)C(=O)N[C@@H](CCSC)C(=O)N[C@@H](CCC(N)=O)C(=O)N[C@@H](CC(C)C)C(=O)NCC(=O)N[C@@H](CCCNC(=N)N)C(=O)O (H-ISHKDMQLGR-OH) | – | IC50 [2]: > 1000 µM |
| CC(=O)N[C@@H](Cc1ccccc1)C(=O)N[C@H]1CCCNC(=O)[C@@H](CCCN=C(N)N)NC(=O)[C@H](Cc2c[nH]c3ccccc23)NC(=O)[C@@H](CC2CCCCC2)NC(=O)[C@@H]2CCCN2C1=O | inactive | – |
| CN[C@@H](Cc1ccccc1)C(=O)N[C@@H](CCCCN)C(=O)N1CCC[C@H]1C(=O)N[C@H](CC1CCCCC1)C(=O)N[C@@H](Cc1c[nH]c2ccccc12)C(=O)N[C@@H](CCCN=C(N)N)C(=O)O | inactive | – |
| CN[C@@H](Cc1ccccc1)C(=O)N[C@@H](CCCCN)C(=O)N1CCC[C@H]1C(=O)N[C@@H](CC1CCCCC1)C(=O)N[C@@H](Cc1c[nH]c2ccccc12)C(=O)N[C@@H](CCCN=C(N)N)C(=O)O | inactive | – |
| CN[C@@H](Cc1ccccc1)C(=O)N[C@@H](CCCCN)C(=O)N1CCC[C@H]1C(=O)N[C@H](CC1CCCCC1)C(=O)N[C@@H](Cc1c[nH]c2ccccc12)C(=O)N[C@H](CCCN=C(N)N)C(N)=O | inactive | – |
